Data from patent US4386103A, “Dichloroamino acid derivatives useful as potent germicidal and fungicidal agents” (Merck & Co., Inc., priority 1981, dated 1983).

Legend:
Format in all cases: cell-based
[1] = system: Staphylococcus epidermidis; assay: Contact germicidal screen, Staphylococcus epidermidis ATCC No. 12228
Procedure: (§1) The organisms used in the contact germicidal screen are all maintained as stock cultures on nutrient agar […] 4° C. They are transferred and biochemically diagnosed monthly. The five organisms used are: The media used are: […] Overnight cultures of the test organisms are grown in tryptose phosphate broth. After 15-16 hours, the cultures are centrifuged at […] for 15 minutes, and the supernatant replaced with fresh warm (37° C.) media. After two hours of incubation, the absorbance of the culture at 650 nm is determined and diluted with nutrient broth to 1×10^7 colony forming units per ml (using a previous determined standard curve: colony forming units/ml vs. absorbance at 650). The diluted cultures are maintained at 4°-8° C. throughout the screen. The compounds are weighed into sterile 100 ml volumetric flasks, and immediately before screening dissolved in one of the following buffers: 0.1 M NaOAc pH 4.6 or 0.1 M NaH2 PO4 pH 7.0. If solubility poses a problem, 10-30% methanol is used to effect solution. Two denaturing agents are also tested: […] Horse Serum restored with 100 ml distilled water and 10% Trition×100. When used, 2.5 ml of the denaturing agent is mixed with 2.5 ml of double strength test solution thirty minutes before the bacterial suspension is added. The screen is initiated when 0.2 ml of the bacterial suspension is added to 5.0 ml of the test solution contained in a sterile 25 ml glass stoppered flask. At intervals of 0.5, 2.5, 5.0, 10.0 and 15.0 minutes, a loopful of the inoculated test solution is subcultured into 5 ml of sterile nutrient broth and mixed with a vortex, the high dilution serving to stop the action of the compound. All of the subculture tubes are incubated at 37° C. and checked for signs of growth by turbidity at 1, 3, 5 and 7 days. The earliest subculture time at which no growth is present is considered the endpoint and is recorded as the sterilization time. An aliquot of 0.2 ml of the diluted culture is transferred to 5 ml of buffer to simulate 0.2 ml in 5 ml of test solution. (a) Purity: A loopful of the inoculated buffer is streaked onto nutrient agar to check colony morphology and lack of contaminants. (b) Viability: A loopful of the inoculated buffer is subcultured to 5 ml of nutrient broth as in the screen and incubated at 37° C. for 24 hours. (c) Dilution of the Test Solution: A loopful of the test solution is transferred to a 5 ml tube of nutrient broth, and a loopful of the inoculated buffer is transferred to the same tube of broth. […] (d) Purity of Organisms in the Test Solution: After the 15 minute subculture, a loopful of the inoculated test solution is streaked onto nutrient agar to insure that contamination has not occurred during the screen. (e) lack of Bactericidal Activity of Buffers and Other Solvents: Before a buffer or other solvent is used as a diluent, it is screened against the five organisms to insure that the buffer or solvent has no antibacterial activity itself.

Staphylococcus aureus = assay: Contact germicidal screen, Staphylococcus aureus ATCC No. 6538
Procedure: as §1

[2] = system: Trychophyton mentagrophytes; assay: Contact fungicidal screen, Trychophyton mentagrophytes; conditions: 0.1M NaOAc pH 4.6
Aspergillus fumigatus = assay: Contact fungicidal screen, Aspergillus fumigatus; conditions: 0.1M NaOAc pH 4.6
Procedure: The organisms used in the Contact Fungicidal Screen are a dermatophyte, trychophyton mentagrophytes, frequently associated with athlete's foot; a yeast, Candida albican, causative agent of thrush and vaginitis; a phycomycete, Rhizopus oryzae, commonly known as black bread mold; an ascomycete, Aspergillus fumagatis, found in chicken droppings and causing lung infections; and another dermatophyte, Microsporum canis, which causes ringworm. These organisms are maintained as stock cultures at 4° C. on agar […] of the following composition: dextrose 2%, Neopeptone (Difco) 1%, agar 2%. Fluid medium of the same nutrient composition (without agar) was used to test the viability of the organisms after exposure to the fungicide. This medium is also known as Sabouraud's medium. Sabouraud's agar plate cultures of Aspergillus fumigatus, Microsporum canis, and a different culture of Trychophyton mentagrophytes are prepared by planting an inoculum at the center of an agar plate and incubating at 25°-30° C. for seven to ten days. The mycelial mats are removed from the surface of the agar and prepared in the same manner as the Rhizopus culture. The compounds are weighed into heat sterilized 100 ml volumetric flasks and immediately before screening dissolved in 0.1 M NaOAc pH 4.6 buffer (test solutions). The Aspergillus, Candida, Microsporum and Rhizopus species are screened in a slightly different manner. Basically, the procedure for the Contact Germicidal Efficiency Screen is utilized. After the test solutions are made up, 5 ml aliquots are pipetted into heat sterilized 25 ml glass stoppered erlenmeyer flasks. The screen is initiated when 0.5 ml of the 5×10^6 cell (spore) per ml suspension is added to the flask containing 5 ml of the test solution. […] The subculture tubes are incubated at 25°-30° C. for ten days with daily observation for mycelial growth. The earliest subculture time at which no growth is present is considered the endpoint and is recorded as the sterilization time. To insure the viability of the culture, a 0.5 ml aliquot of the 5×10^6 cells (spores) per ml suspension is transferred to 5 ml of the pH 4.6 buffer. A loopful of the inoculated buffer is then subcultured to 7 ml of fluid Sabouraud's medium and incubated at 25°-30° C. for ten days. To insure that the dilution of the test solution into the subculture medium does stop the action, a loopful of the test solution and a loopful of the inoculated buffer are transferred into the same subculture tube. This tube is also incubated at 25°-30° C. for ten days.

[3] = 10.0+ PPM, 0.1M NaOAc pH 4.6, screened simultaneously with four other compounds
[4] = 300 PPM with 50% Horse Serum, 0.1M NaOAc pH 4.6
[5] = 300 PPM with 50% Triton X100, 0.1M NaOAc pH 4.6
[6] = 308.0 PPM, Triton X100 (10% solution):pH 4.6 buffer 1:1
[7] = 308.0 PPM, horse serum:pH 4.6 buffer 1:1
[8] = 1000 PPM with 50% Horse Serum, 0.1M NaOAc pH 4.6
[9] = 1000.0 PPM, horse serum:pH 4.6 buffer 1:1
[10] = 1012.3 PPM, 0.1M NaH2PO4 pH 7.0

Compound: CC(C)(CCC(=O)O)N(Cl)Cl [(III), 4-Dichloroamino-4-methylvaleric acid]
- Sterilization Time ([1]; 9.6 PPM, 0.1M NaOAc pH 4.6): 5.0 min
- Sterilization Time ([1]; 9.7 PPM, 0.1M NaH2PO4 pH 7.0): 15 min
- Sterilization Time [1, 3]: 10.0 min
- Sterilization Time (summary) ([1]; 10 PPM, 0.1M NaOAc pH 4.6): 10.0 min
- Sterilization Time (summary) ([1]; 100 PPM, 0.1M NaOAc pH 4.6): 0.5 min
- Sterilization Time ([1]; 102.2 PPM, 0.1M NaOAc pH 4.6): 0.5 min
- Sterilization Time ([1]; 103.5 PPM, 0.1M NaH2PO4 pH 7.0): 15 min
- Sterilization Time (summary) [1, 4]: 10.0 min
- Sterilization Time (summary) [1, 5]: 2.5 min
- Sterilization Time [1, 6]: 2.5 min
- Sterilization Time [1, 7]: 10.0 min
- Sterilization Time (summary) [1, 8]: 2.5 min
- Sterilization Time (summary) ([1]; 1000 PPM, 0.1M NaOAc pH 4.6): 0.5 min
- Sterilization Time [1, 9]: 2.5 min
- Sterilization Time ([1]; 1007.7 PPM, 0.1M NaOAc pH 4.6): 0.5 min
- Sterilization Time [1, 10]: 5.0 min
- Sterilization Time (Staphylococcus aureus; 9.6 PPM, 0.1M NaOAc pH 4.6): 10.0 min
- Sterilization Time (Staphylococcus aureus; 9.7 PPM, 0.1M NaH2PO4 pH 7.0): 15 min
- Sterilization Time (Staphylococcus aureus; [3]): 5.0 min
- Sterilization Time (summary) (Staphylococcus aureus; 10 PPM, 0.1M NaOAc pH 4.6): 5.0 min
- Sterilization Time (summary) (Staphylococcus aureus; 100 PPM, 0.1M NaOAc pH 4.6): 2.5 min
- Sterilization Time (Staphylococcus aureus; 102.2 PPM, 0.1M NaOAc pH 4.6): 2.5 min
- Sterilization Time (Staphylococcus aureus; 103.5 PPM, 0.1M NaH2PO4 pH 7.0): 15 min
- Sterilization Time (summary) (Staphylococcus aureus; [4]): 5.0 min
- Sterilization Time (summary) (Staphylococcus aureus; [5]): 2.5 min
- Sterilization Time (Staphylococcus aureus; [6]): 2.5 min
- Sterilization Time (Staphylococcus aureus; [7]): 5.0 min
- Sterilization Time (summary) (Staphylococcus aureus; [8]): 0.5 min
- Sterilization Time (summary) (Staphylococcus aureus; 1000 PPM, 0.1M NaOAc pH 4.6): 0.5 min
- Sterilization Time (Staphylococcus aureus; [9]): 0.5 min
- Sterilization Time (Staphylococcus aureus; 1007.7 PPM, 0.1M NaOAc pH 4.6): 0.5 min
- Sterilization Time (Staphylococcus aureus; [10]): 5.0 min
- Sterilization Time ([2]; 10 PPM): 5.0 min
- Sterilization Time ([2]; 100 PPM): 0.5 min
- Sterilization Time ([2]; 1000 PPM): 0.5 min
- Sterilization Time (Aspergillus fumigatus; 10 PPM): 15 min
- Sterilization Time (Aspergillus fumigatus; 100 PPM): 15 min
- Sterilization Time (Aspergillus fumigatus; 1000 PPM): 10.0 min
